Values quoted from earlier work as cited in patent US9119409B2, “Water soluble nutritional supplement for ruminants” (priority 2013, dated 2015).
Read-outs that look alike come from different tables or passages of the source.

In the case of `O=C([O-])[O-].[Ca+2]` [calcium carbonate], the bioavailability (at a pH greater than 4) is listed as “less than 1%” and the bioavailability (at a pH of 1.5) is listed as “around 75%”.
